Marks after values point to notes of the source that are not given here.
What was measured:
Assay type in all cases: in vivo
Conditions in all cases: 100 = 100% disease control
[1] = tested on: Erysiphe graminis f. sp. tritici; test: Test J: wheat powdery mildew on wheat seedlings, sprayed the day before inoculation, visual disease rating
In short: (§1)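 Compounds were dissolved in acetone (3% of final volume), then suspended in 50/50 acetone/water with 250 ppm Trem 014 surfactant and sprayed to run-off on test plants. A 200 ppm suspension equals 500 g/ha. Ratings are at 200 ppm unless flagged as 40 ppm.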

Alternaria solani = test: Test D: tomato early blight, sprayed the day before inoculation, visual disease rating
In short: as §1

Septoria nodorum = test: Test F: wheat glume blotch on wheat seedlings, sprayed the day before inoculation, visual disease rating
In short: as §1

[2] = tested on: Puccinia recondita f. sp. tritici; test: Test I: wheat leaf rust on wheat seedlings, sprayed the day before inoculation, visual disease rating
In short: as §1

Botrytis cinerea = test: Test C: tomato Botrytis on tomato seedlings, sprayed the day before inoculation, visual disease rating
In short: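 Tomato seedlings sprayed to run-off with compound suspended in acetone/water with 250 ppm Trem 014 surfactant, at 200 ppm (≈500 g/ha) or 40 ppm where marked, one day before Botrytis cinerea inoculation. Disease rated visually.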

Septoria tritici = test: Test G: wheat leaf blotch on wheat seedlings, sprayed the day before inoculation, visual disease rating
In short: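 Wheat seedlings were sprayed with compound suspensions, 200 ppm unless starred (40 ppm). After next-day spore inoculation, plants spent 48 h saturated at 24° C, then 19 days at 20° C, when disease was rated visually.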

[3] = 200 ppm, 0 = no control relative to controls
[4] = 40 ppm (marked *), 0 = no control

Compound | Test J disease control rating [1, 3] [%] | Test D disease control rating (Alternaria solani; [3]) [%] | Test F disease control rating (Septoria nodorum; [3]) [%] | Test I disease control rating [2, 3] [%] | Test C disease control rating (Botrytis cinerea; [3]) [%] | Test G disease control rating (Septoria tritici; [3]) [%] | Test J disease control rating ([1]; 200 ppm, 0 = no control) [%] | Test D disease control rating (Alternaria solani; 200 ppm, 0 = no control) [%] | Test F disease control rating (Septoria nodorum; 200 ppm, 0 = no control) [%] | Test I disease control rating ([2]; 200 ppm, 0 = no control) [%] | Test C disease control rating (Botrytis cinerea; 200 ppm, 0 = no control) [%] | Test G disease control rating (Septoria tritici; 200 ppm, 0 = no control) [%] | other results
Fc1cc(Cn2c(Br)nc(Cl)c2-c2c(F)cccc2F)ccc1Cl [compound 102] | 99 | 0 | 55 | 99 | 98 | 97 | – | – | – | – | – | – | –
CCc1ccc(-n2c(Br)nc(Cl)c2-c2c(F)ccc(OC)c2F)cc1 [compound 441] | 99 | 99 | 0 | 97 | 97 | 97 | – | – | – | – | – | – | –
Fc1cccc(F)c1-c1c(Cl)nc(Cl)n1-c1cccc(Cl)c1 [compound 222] | – | – | – | – | – | – | 98 | 99 | 0 | 97 | 99 | 99 | –
Cc1ccc(-n2c(Cl)nc(Cl)c2-c2c(F)ccc(F)c2F)cc1 [compound 130] | 96 | 100 | 0 | 99 | 98 | 85 | – | – | – | – | – | – | –
COc1cc(F)c(-c2c(Cl)ncn2-c2ccc(F)cc2)c(F)c1 [compound 136] | 100 | 100 | 99 | 100 | 99 | 96 | – | – | – | – | – | – | –
Fc1cccc(F)c1-c1c(Cl)nc(Br)n1Cc1cccc(Cl)c1 [compound 101] | 99 | 0 | 0 | 100 | 88 | 97 | – | – | – | – | – | – | –
Cc1nc(Cl)n(-c2ccc(Cl)c(F)c2)c1-c1c(Cl)cncc1Cl [compound 262] | – | – | – | – | – | – | 100 | 99 | 69 | 100 | 99 | 96 | –
COc1ccc(-c2c(Cl)nc(Br)n2-c2ccc(Cl)cc2)c(F)c1 [compound 110] | 96 | 99 | 100 | 97 | 94 | 95 | – | – | – | – | – | – | –
COc1ccc(F)c(-c2c(Cl)nc(Cl)n2-c2ccc(I)cc2)c1F [compound 444] | 99 | 100 | 100 | 95 | 99 | 98 | – | – | – | – | – | – | –
Cc1nc(Cl)c(-c2ccc(F)cc2Cl)n1-c1ccc(F)cc1 [compound 187] | – | – | – | – | – | – | 100 | 100 | 94 | 100 | 99 | 97 | –
Fc1ccc(-n2c(Cl)nc(Cl)c2-c2ccc(F)cc2Cl)cc1 [compound 183] | – | – | – | – | – | – | – | – | – | – | – | – | Test J disease control rating [1, 4]: 48* %; Test D disease control rating (Alternaria solani; [4]): 91* %; Test F disease control rating (Septoria nodorum; [4]): 0* %; Test I disease control rating [2, 4]: 66* %; Test C disease control rating (Botrytis cinerea; [4]): 99* %; Test G disease control rating (Septoria tritici; [4]): 85* %
Fc1cccc(F)c1-n1c(Cl)nc(Cl)c1-c1ccc(Cl)cc1 [compound 150] | – | – | – | – | – | – | 100 | 100 | 60 | 97 | 99 | 98 | –
Cc1nc(Cl)c(-c2c(F)ccc(F)c2Cl)n1-c1ccc(Cl)c(F)c1 [compound 237] | – | – | – | – | – | – | 100 | 100 | 100 | 100 | 100 | 98 | –
